IC50 data for 14 compounds are collected here from patent publication US11584755B2 (IDEAYA BIOSCIENCES, INC., priority 2017, dated 2023).

Holding throughout (format): biochemical
One experiment concerns the target hFEN1 (Homo sapiens (Human), UniProt P39748). In words: Enzymatic IC50 assay, FAM-labeled DNA oligomer substrate, fluorescence intensity (FEN1). Conditions: hFEN1 70 pM, substrate 100 nM, reaction time 20 minutes, 23° C. The procedure, abridged:
(§1)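 FEN1, EXO1 or XPG was preincubated 15 min with compound, then the FAM-labelled DNA oligomer substrate was added in Tris-HCl pH 8.0 with 10 mM MgCl2 at 23° C. FEN1 was 70 pM with 100 nM substrate for 20 min, EXO1 6 nM with 30 nM for 60 min, and XPG 100 nM with 100 nM for 120 min. Reactions were EDTA-stopped and read by fluorescence intensity.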

A further experiment has as its target hEXO1, Isoform1 (Homo sapiens (Human), UniProt Q9UQ84). As to the kind of experiment: Enzymatic IC50 assay, FAM-labeled DNA oligomer substrate, fluorescence intensity (EXO1). The following applies: hEXO1 6 nM, substrate 30 nM, reaction time 60 minutes, 23° C. The procedure, abridged: as §1
For another experiment, the target named is hXPG (Homo sapiens (Human), UniProt P28715). As to the kind of experiment: Enzymatic IC50 assay, FAM-labeled DNA oligomer substrate, fluorescence intensity (XPG). Conditions: hXPG 100 nM, substrate 100 nM, reaction time 120 minutes, 23° C. The procedure, abridged: as §1
Sequence of hXPG (P28715 whole entry): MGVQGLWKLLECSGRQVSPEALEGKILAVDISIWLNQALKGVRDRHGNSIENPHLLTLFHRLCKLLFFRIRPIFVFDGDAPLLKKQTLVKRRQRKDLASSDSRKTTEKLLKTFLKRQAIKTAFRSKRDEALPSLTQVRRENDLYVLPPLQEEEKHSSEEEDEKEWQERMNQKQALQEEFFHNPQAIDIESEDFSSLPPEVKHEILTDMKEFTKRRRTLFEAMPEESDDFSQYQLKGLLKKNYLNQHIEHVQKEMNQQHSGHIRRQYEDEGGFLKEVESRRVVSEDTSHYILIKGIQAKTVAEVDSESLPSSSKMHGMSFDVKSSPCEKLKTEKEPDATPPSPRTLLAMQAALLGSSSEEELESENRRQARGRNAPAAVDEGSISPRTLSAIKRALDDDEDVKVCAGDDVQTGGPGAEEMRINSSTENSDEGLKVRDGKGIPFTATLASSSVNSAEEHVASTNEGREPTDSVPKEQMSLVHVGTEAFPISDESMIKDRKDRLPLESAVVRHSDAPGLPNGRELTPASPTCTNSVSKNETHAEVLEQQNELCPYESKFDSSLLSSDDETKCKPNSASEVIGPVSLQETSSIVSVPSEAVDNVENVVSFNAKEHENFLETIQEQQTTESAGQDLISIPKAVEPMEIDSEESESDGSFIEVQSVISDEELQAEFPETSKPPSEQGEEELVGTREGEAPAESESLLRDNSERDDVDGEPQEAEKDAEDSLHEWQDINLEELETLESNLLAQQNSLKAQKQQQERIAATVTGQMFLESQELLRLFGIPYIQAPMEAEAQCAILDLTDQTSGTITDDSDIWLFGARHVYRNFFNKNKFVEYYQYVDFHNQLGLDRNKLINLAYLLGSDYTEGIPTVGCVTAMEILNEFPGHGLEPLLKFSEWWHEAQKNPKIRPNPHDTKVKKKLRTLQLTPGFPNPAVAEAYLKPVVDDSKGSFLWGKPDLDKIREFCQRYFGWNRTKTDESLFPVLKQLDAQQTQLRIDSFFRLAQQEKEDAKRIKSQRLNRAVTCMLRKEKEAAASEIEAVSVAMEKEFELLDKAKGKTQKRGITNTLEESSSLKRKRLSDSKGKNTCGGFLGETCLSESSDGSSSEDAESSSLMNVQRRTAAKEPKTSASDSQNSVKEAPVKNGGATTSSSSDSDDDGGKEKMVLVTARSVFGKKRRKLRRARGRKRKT

Sequence of hEXO1, Isoform1 (Q9UQ84 whole entry, canonical isoform): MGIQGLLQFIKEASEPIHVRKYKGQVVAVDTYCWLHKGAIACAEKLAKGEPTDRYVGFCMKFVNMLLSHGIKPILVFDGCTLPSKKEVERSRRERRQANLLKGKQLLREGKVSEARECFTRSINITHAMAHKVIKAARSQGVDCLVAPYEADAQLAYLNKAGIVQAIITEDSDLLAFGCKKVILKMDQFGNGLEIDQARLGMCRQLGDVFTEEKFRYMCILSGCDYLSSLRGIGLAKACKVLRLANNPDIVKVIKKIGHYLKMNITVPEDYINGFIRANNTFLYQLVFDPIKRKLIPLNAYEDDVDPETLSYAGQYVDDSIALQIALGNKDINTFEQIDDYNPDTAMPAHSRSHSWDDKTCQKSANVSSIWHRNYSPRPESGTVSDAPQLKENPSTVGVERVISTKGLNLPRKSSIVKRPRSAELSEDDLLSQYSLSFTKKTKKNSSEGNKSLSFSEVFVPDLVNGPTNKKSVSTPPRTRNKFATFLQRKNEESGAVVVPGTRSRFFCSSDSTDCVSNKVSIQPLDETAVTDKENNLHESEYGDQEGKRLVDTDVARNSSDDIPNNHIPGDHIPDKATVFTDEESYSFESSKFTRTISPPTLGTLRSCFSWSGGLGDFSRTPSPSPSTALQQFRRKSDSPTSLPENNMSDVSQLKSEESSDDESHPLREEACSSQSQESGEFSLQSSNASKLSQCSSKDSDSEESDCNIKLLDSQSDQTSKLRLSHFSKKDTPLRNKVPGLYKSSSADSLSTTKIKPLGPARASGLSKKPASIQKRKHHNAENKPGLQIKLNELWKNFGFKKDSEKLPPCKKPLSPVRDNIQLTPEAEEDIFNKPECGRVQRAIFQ
Sequence of hFEN1 (P39748 whole entry): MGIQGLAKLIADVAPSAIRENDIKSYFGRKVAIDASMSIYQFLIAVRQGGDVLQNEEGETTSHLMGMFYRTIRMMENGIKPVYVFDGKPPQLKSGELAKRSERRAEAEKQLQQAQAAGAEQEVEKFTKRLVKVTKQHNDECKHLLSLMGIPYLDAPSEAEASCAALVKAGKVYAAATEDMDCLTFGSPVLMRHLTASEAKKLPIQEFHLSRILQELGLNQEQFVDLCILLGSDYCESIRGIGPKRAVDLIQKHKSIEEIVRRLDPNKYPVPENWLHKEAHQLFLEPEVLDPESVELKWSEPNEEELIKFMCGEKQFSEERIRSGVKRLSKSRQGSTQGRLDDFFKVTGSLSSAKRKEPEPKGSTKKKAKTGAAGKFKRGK

Regarding `O=C(O)c1c(O)c(=O)n(Cc2cnn3ccccc23)c2ccsc12` [Example 24, 6-hydroxy-5-oxo-4-(pyrazolo[1,5-a]pyridin-3-ylmethyl)-4,5-dihydrothieno[3,2-b]pyridine-7-carboxylic acid], the IC50 against hFEN1 was < 200 nM; at hEXO1, Isoform1, 750 to 2250 nM; against hXPG, < 200 nM.

`O=C(O)c1c(O)c(=O)n(Cc2cnn(CCc3ccncc3)c2)c2ccsc12` [Example 28, 6-hydroxy-5-oxo-4-({1-[2-(4-pyridyl)ethyl]pyrazol-4-yl}methyl)thieno[3,2-b]pyridine-7-carboxylic acid]: the IC50 against hFEN1 is < 200 nM; against hEXO1, Isoform1, 2250 to 10000 nM; at hXPG it was 2250 to 10000 nM.

With `O=C(O)c1c(O)c(=O)n(Cc2noc(-c3ccccc3)n2)c2ccsc12` [Example 88, 6-hydroxy-5-oxo-4-[(5-phenyl-1,2,4-oxadiazol-3-yl)methyl]-4,5-dihydrothieno[3,2-b]pyridine-7-carboxylic acid], the IC50 is 750 to 2250 nM at hFEN1; 250 to 750 nM against hEXO1, Isoform1; 2250 to 10000 nM at hXPG.

As to `CS(=O)(=O)c1cccc(-n2cc(Cn3c(=O)c(O)c(C(=O)O)c4sccc43)cn2)c1` [Example 115, 6-hydroxy-4-({1-[3-(methylsulfonyl)phenyl]-1H-pyrazol-4-yl}methyl)-5-oxo-4,5-dihydrothieno[3,2-b]pyridine-7-carboxylic acid], the IC50 against hFEN1 is < 200 nM; at hEXO1, Isoform1, < 200 nM; at hXPG, 750 to 2250 nM.

In the case of `Cc1cc(C#N)ccc1Cn1cc(Cn2c(=O)c(O)c(C(=O)O)c3sccc32)cn1` [Example 133, 4-{[1-(4-cyano-2-methylbenzyl)-1H-pyrazol-4-yl]methyl}-6-hydroxy-5-oxo-4,5-dihydrothieno[3,2-b]pyridine-7-carboxylic acid], the IC50 against hFEN1 was < 200 nM; against hEXO1, Isoform1, 2250 to 10000 nM; at hXPG, 750 to 2250 nM.

As for `CS(=O)(=O)c1ccc(-n2cc(Cn3c(=O)c(O)c(C(=O)O)c4sccc43)cn2)cc1` [Example 116, 6-hydroxy-4-({1-[4-(methylsulfonyl)phenyl]-1H-pyrazol-4-yl}methyl)-5-oxo-4,5-dihydrothieno[3,2-b]pyridine-7-carboxylic acid], the IC50 against hFEN1 is < 200 nM; against hEXO1, Isoform1 it was 250 to 750 nM; at hXPG, 750 to 2250 nM.

In the case of `O=C(O)c1c(O)c(=O)n(Cc2ccc(Br)cc2)c2ccsc12` [Example 5, 4-(4-bromobenzyl)-6-hydroxy-5-oxo-4,5-dihydrothieno[3,2-b]pyridine-7-carboxylic acid], the IC50 on hFEN1 was 250 to 750 nM; on hEXO1, Isoform1, 2250 to 10000 nM; against hXPG, 2250 to 10000 nM.

As to `O=C(O)c1c(O)c(=O)n(Cc2ccc3[nH]cnc3c2)c2ccsc12` [Example 99, 4-[(1H-benzo[d]imidazol-5-yl)methyl]-6-hydroxy-5-oxo-4,5-dihydrothieno[3,2-b]pyridine-7-carboxylic acid], the half-inhibitory concentration (IC50) is < 200 nM at hFEN1; 750 to 2250 nM at hEXO1, Isoform1; 2250 to 10000 nM against hXPG.

Regarding `O=C(O)c1c(O)c(=O)n(Cc2cnn(CC(=O)N3CC[C@H](O)C3)c2)c2ccsc12` [Example 154, (S)-6-hydroxy-4-({1-[2-(3-hydroxypyrrolidin-1-yl)-2-oxoethyl]-1H-pyrazol-4-yl}methyl)-5-oxo-4,5-dihydrothieno[3,2-b]pyridine-7-carboxylic acid], the half-inhibitory concentration (IC50) against hFEN1 was 250 to 750 nM; at hEXO1, Isoform1, > 10000 nM; at hXPG it was > 10000 nM.

On to `O=C(O)c1c(O)c(=O)n(Cc2cnn(CC(=O)N3CCOCC3)c2)c2ccsc12` [Example 156], for which the IC50 against hFEN1 is < 200 nM; on hEXO1, Isoform1, 2250 to 10000 nM; against hXPG, 2250 to 10000 nM.

`O=C(O)c1c(O)c(=O)n(Cc2cn(-c3ccc4nc[nH]c4c3)nn2)c2ccsc12` [Example 149, 4-{[1-(1H-benzo[d]imidazol-6-yl)-1H-1,2,3-triazol-4-yl]methyl}-6-hydroxy-5-oxo-4,5-dihydrothieno[3,2-b]pyridine-7-carboxylic acid]: the IC50 is < 200 nM at hFEN1; 2250 to 10000 nM against hEXO1, Isoform1; 750 to 2250 nM at hXPG.

As to `Cn1cc(Cn2c(=O)c(O)c(C(=O)O)c3sccc32)cn1` [Example 90, 6-hydroxy-4-[(1-methyl-1H-pyrazol-4-yl)methyl]-5-oxo-4,5-dihydrothieno[3,2-b]pyridine-7-carboxylic acid], the IC50 is < 200 nM against hFEN1; 2250 to 10000 nM against hEXO1, Isoform1; 2250 to 10000 nM against hXPG.

Take `O=C(O)c1c(O)c(=O)n(Cc2cnn(Cc3cn4ccncc4n3)c2)c2ccsc12` [Example 125, 6-hydroxy-4-{[1-(imidazo[1,2-a]pyrazin-2-ylmethyl)-1H-pyrazol-4-yl]methyl}-5-oxo-4,5-dihydrothieno[3,2-b]pyridine-7-carboxylic acid]: the IC50 against hFEN1 was < 200 nM; at hEXO1, Isoform1, 750 to 2250 nM; at hXPG, 2250 to 10000 nM.

Take `N#Cc1ccc(Cn2cc(Cn3c(=O)c(O)c(C(=O)O)c4sccc43)cn2)c(C(F)(F)F)c1` [Example 146, 4-({1-[4-cyano-2-(trifluoromethyl)benzyl]-1H-pyrazol-4-yl}methyl)-6-hydroxy-5-oxo-4,5-dihydrothieno[3,2-b]pyridine-7-carboxylic acid]: the IC50 is < 200 nM at hFEN1; 2250 to 10000 nM against hEXO1, Isoform1; 750 to 2250 nM on hXPG.
